Results taken from DBAASP.
≈ marks a conversion by molar mass, not a printed value.

Tests used:
Assay in all cases: ≥ marks a high value that may be exact or a test limit, other limits are often not marked, values filed in µg/mL are converted to µM
[1] = test system: Klebsiella pneumoniae 08040724
[2] = test system: Enterococcus faecium 091299
[3] = test system: Enterococcus faecalis 981
Candida glabrata 090902 = test system: Candida glabrata 090902
[4] = test system: Staphylococcus aureus ATCC 25923
[5] = test system: Escherichia coli ATCC 25922
[6] = test system: Nocardia asteroides 201118
[7] = test system: Psychrobacter faecalis X29
[8] = test system: Enterobacter cloacae CGMCC 1.57
[9] = test system: Pseudomonas aeruginosa ATCC 27853
[10] = test system: Enterococcus faecalis ATCC 29212
[11] = test system: Salmonella enterica subsp. enterica serovar Typhimurium C77-31
[12] = test system: Bacillus subtilis CMCC 63501
[13] = test system: Salmonella enterica subsp. enterica serovar Pullorum C79-13
[14] = test system: Staphylococcus epidermidis ATCC 12228
[15] = test system: Staphylococcus aureus ATCC 29213
[16] = test system: Aspergillus niger ATCC 9142
[17] = test system: Saccharomyces cerevisiae PTCC 5052
[18] = test system: Bacillus subtilis ATCC 6051
[19] = test system: Candida albicans ATCC 10231
[20] = test system: Aspergillus flavus ATCC 24109
[21] = test system: Trichophyton mentagrophytes ATCC 32510
[22] = test system: Cryptococcus neoformans ATCC 2517
[23] = test system: Aspergillus fumigatus ATCC 1022
[24] = test system: Microsporum canis PTCC 5069
[25] = test system: Candida glabrata ATCC 90030
[26] = test system: Candida krusei ATCC 28870
[27] = test system: Staphylococcus aureus RN4220
[28] = test system: Pseudomonas fluorescens NCIMB 9046
[29] = test system: Klebsiella pneumoniae NCIMB 13218
[30] = test system: Cronobacter sakazakii DSM 4485
[31] = test system: Cronobacter sakazakii DPC 6440
[32] = test system: Cronobacter muytjensii ATCC 51329
[33] = test system: Staphylococcus aureus RF122
[34] = test system: Staphylococcus aureus SA113
[35] = test system: Salmonella enterica subsp. enterica serovar Typhimurium LT2
[36] = test system: Cronobacter sakazakii ATCC BAA-894
[37] = test system: Escherichia coli NCIMB 11843
[38] = test system: Staphylococcus aureus NCTC 8325-4
[39] = test system: Staphylococcus aureus Newman
[40] = test system: Acinetobacter baumannii ABA1
[41] = test system: Staphylococcus aureus S5375
Escherichia coli = test system: Escherichia coli
[42] = test system: Staphylococcus aureus SAU5
[43] = test system: Pseudomonas aeruginosa PAER10
Escherichia coli ECO1 = test system: Escherichia coli ECO1
[44] = test system: Acinetobacter baumannii ABA2
Staphylococcus aureus = test system: Staphylococcus aureus
[45] = test system: Pseudomonas aeruginosa PAER7
[46] = test system: Pseudomonas aeruginosa PAO1
[47] = test system: Staphylococcus aureus SAU7
[48] = test system: Porphyromonas gingivalis ATCC 33277
[49] = test system: Pseudomonas aeruginosa PAER4
[50] = test system: Pseudomonas aeruginosa PAER1
[51] = test system: Salmonella enterica serovar Typhimurium
Pseudomonas aeruginosa = test system: Pseudomonas aeruginosa
Escherichia coli ECO2 = test system: Escherichia coli ECO2
[52] = test system: Staphylococcus aureus SAU2
Acinetobacter baumannii = test system: Acinetobacter baumannii

CC[C@H](C)[C@@H]1NC(=O)[C@H](CCCCN)NC(=O)[C@@H](NC(=O)[C@@H](NC(=O)[C@@H](NC(=O)[C@H](CCCCN)NC(=O)[C@@H]2CCCN2C(=O)[C@H](CC(C)C)NC(=O)[C@H](Cc2ccccc2)NC(=O)[C@H](CC(N)=O)NC(=O)[C@H](C)NC(=O)[C@H](C)NC(=O)[C@H](CC(C)C)NC(=O)CNC(=O)[C@H](C)NC(=O)[C@H](CC(C)C)NC(=O)[C@H](CCSC)NC(=O)[C@@H]2CCCN2C(=O)[C@H](CC(C)C)NC(=O)[C@@H](N)Cc2ccccc2)[C@@H](C)CC)[C@@H](C)CC)CSSC[C@@H](C(=O)O)NC(=O)[C@H](CCCCN)NC(=O)[C@H](CCCCN)NC(=O)[C@H]([C@@H](C)O)NC1=O [FLPMLAGLAANFLPKIICKITKKC]
MIC [1]: ≥ 100 µM
MIC [2]: ≥ 50 µM
MIC [3]: 6.3 µM (≈ 16.6 µg/mL)
MIC (Candida glabrata 090902): 6.3 µM (≈ 16.6 µg/mL)
MIC [4]: 6.3 µM (≈ 16.6 µg/mL)
MIC [5]: 100 µM (≈ 263 µg/mL)
MIC [6]: 3.1 µM (≈ 8.16 µg/mL)
MIC [7]: 12.5 µM (≈ 32.9 µg/mL)
MIC [8]: ≥ 100 µM

NC(=O)[C@H](Cc1ccccc1)NC(=O)[C@H](CCCN=C(N)N)NC(=O)[C@H](CS)NC(=O)[C@H](Cc1ccccc1)NC(=O)[C@H](CCCN=C(N)N)NC(=O)[C@H](CCCN=C(N)N)NC(=O)[C@H](CCCN=C(N)N)NC(=O)[C@H](CS)NC(=O)[C@H](CCCN=C(N)N)NC(=O)[C@@H](N)Cc1ccccc1 [FRCRRRFCRF]
MIC [9]: > 128 µM
MIC [10]: 32 µM (≈ 46.3 µg/mL)
MIC [11]: ≥ 32 µM
MIC [12]: 4 µM (≈ 5.78 µg/mL)
MIC [13]: 16 µM (≈ 23.1 µg/mL)
MIC [5]: 4 µM (≈ 5.78 µg/mL)
MIC [14]: 16 µM (≈ 23.1 µg/mL)
MIC [15]: 32 µM (≈ 46.3 µg/mL)

CC[C@H](C)[C@H](NC(=O)[C@H](CCCCN)NC(=O)[C@H](CCCCN)NC(=O)[C@@H](NC(=O)[C@@H](NC(=O)[C@H](CC(=O)O)NC(=O)[C@H](Cc1ccccc1)NC(=O)[C@H](CC(C)C)NC(=O)CN)[C@@H](C)CC)[C@@H](C)CC)C(=O)N[C@@H](C)C(=O)N[C@@H](CCC(=O)O)C(=O)N[C@@H](CO)C(=O)N[C@@H](Cc1ccccc1)C(=O)O [GLFDIIKKIAESF]
MIC [16]: ≥ 675 µM
MIC [17]: ≥ 84.4 µM
MIC [18]: ≥ 172 µM
MIC [19]: 84.4 µM (≈ 125 µg/mL)
MIC [20]: ≥ 675 µM
MIC [21]: ≥ 675 µM
MIC [22]: ≥ 675 µM
MIC [9]: > 675 µM
MIC [10]: 84.4 µM (≈ 125 µg/mL)
MIC [23]: ≥ 84.4 µM
MIC [4]: > 675 µM
MIC [5]: 84.4 µM (≈ 125 µg/mL)
MIC [24]: ≥ 675 µM
MIC [25]: ≥ 675 µM
MIC [26]: ≥ 338 µM

CC(C)C[C@H](NC(=O)[C@H](CCCN=C(N)N)NC(=O)[C@H](C)NC(=O)[C@H](CC(N)=O)NC(=O)[C@H](CCC(=O)O)NC(=O)[C@H](CC(N)=O)NC(=O)[C@H](CC(C)C)NC(=O)[C@@H](N)C(C)C)C(=O)O [VLNENARL]
MIC [27]: ≥ 1250 µM
MIC [28]: ≥ 1250 µM
MIC [29]: ≥ 1250 µM
MIC [30]: ≥ 1250 µM
MIC [31]: ≥ 1250 µM
MIC [32]: ≥ 1250 µM
MIC [33]: ≥ 1250 µM
MIC [34]: ≥ 625 µM
MIC [35]: ≥ 1250 µM
MIC [36]: ≥ 1250 µM
MIC [37]: ≥ 1250 µM
MIC [38]: ≥ 1250 µM
MIC [39]: ≥ 1250 µM

CC[C@H](C)[C@H](NC(=O)[C@H](CCCN=C(N)N)NC(=O)[C@H](Cc1c[nH]c2ccccc12)NC(=O)[C@H](CCC(N)=O)NC(=O)[C@@H](N)C(C)C)C(=O)N[C@@H](CCCN=C(N)N)C(=O)N[C@H](C(=O)N[C@@H](C)C(=O)N[C@H](C(=O)N[C@H](C(=O)N[C@@H](CCCN=C(N)N)C(=O)N[C@@H](CCCCN)C(=O)O)[C@@H](C)CC)C(C)C)C(C)C [VQWRIRVAVIRK]
MIC [40]: 5.25 µM (≈ 8 µg/mL)
MIC [41]: 14.8 µM (≈ 22.6 µg/mL)
MIC (Escherichia coli): 42 µM (≈ 64 µg/mL)
MIC [42]: 21 µM (≈ 32 µg/mL)
MIC [43]: 2.62 µM (≈ 4 µg/mL)
MIC (Escherichia coli ECO1): 3.71 µM (≈ 5.66 µg/mL)
MIC [44]: 7.42 µM (≈ 11.3 µg/mL)
MIC (Staphylococcus aureus): 14.8 µM (≈ 22.6 µg/mL)
MIC [45]: 21 µM (≈ 32 µg/mL)
MIC [46]: 10.5 µM (≈ 16 µg/mL)
MIC [47]: 21 µM (≈ 32 µg/mL)
MIC [48]: 5.25 µM (≈ 8 µg/mL)
MIC [4]: 10.5 µM (≈ 16 µg/mL)
MIC [5]: 10.5 µM (≈ 16 µg/mL)
MIC [49]: 10.5 µM (≈ 16 µg/mL)
MIC [50]: 3.71 µM (≈ 5.66 µg/mL)
MIC [51]: 5.25 µM (≈ 8 µg/mL)
MIC (Pseudomonas aeruginosa): 10.5 µM (≈ 16 µg/mL)
MIC (Escherichia coli ECO2): 3.71 µM (≈ 5.66 µg/mL)
MIC [52]: 21 µM (≈ 32 µg/mL)
MIC (Acinetobacter baumannii): 10.5 µM (≈ 16 µg/mL)
